In paper PMC10598577 (JACS Au, 2023):
Entries after “also recorded” stand apart in the source; their conditions may differ.

Columns and labels:
[1] = target: T1, wild type MopR (Acinetobacter guillouiae, UniProt Q43965); settings: wild type MopR sensor domain; previous ITC studies; cited from earlier work
T1 sequence (Q43965 1-229): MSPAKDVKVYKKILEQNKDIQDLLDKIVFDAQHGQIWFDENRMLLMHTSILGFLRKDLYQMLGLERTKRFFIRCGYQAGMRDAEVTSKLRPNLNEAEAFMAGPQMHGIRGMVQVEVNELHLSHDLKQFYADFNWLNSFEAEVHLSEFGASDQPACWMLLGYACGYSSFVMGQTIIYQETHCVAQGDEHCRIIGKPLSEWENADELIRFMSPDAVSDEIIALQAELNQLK

[2] = target: MopR M100K_V116D (Acinetobacter guillouiae, UniProt Q43965, M100K/V116D); settings: salt bridge mutant M100K_V116D, ligand phenol
[3] = system: MopR M100K_L119D; settings: salt bridge mutant M100K_L119D, ligand phenol
[4] = system: MopR second barrier residues (F99, F132) mutated to leucine; settings: F99, F132 mutated to nonaromatic leucine, ligand phenol
[5] = target: MopR H106A; settings: cited from earlier work
[6] = target: MopR W134A; settings: cited from earlier work
[7] = target: T1, wild type MopR; assay: biochemical
[8] = target: MopR M100Q_V116N (Acinetobacter guillouiae, UniProt Q43965, M100Q/V116N); assay: biochemical
[9] = target: MopR M100Q_L119N (Acinetobacter guillouiae, UniProt Q43965, L119N/M100Q); assay: biochemical
[10] = target: MopR M100V_L119V (Acinetobacter guillouiae, UniProt Q43965, L119V/M100V); assay: biochemical

SMILES	ligand selection profile of MopR (binding, in words) [1]	binding (ITC) [2]	binding (ITC) [3]	binding affinity (ITC) [4]	Kd [5]	Kd [6]	Kd [7]	Kd [8]	Kd [9]	Kd [10]
c1ccccc1 [benzene]	significantly decreased affinity; also recorded: little or negligible binding	–	–	–	–	–	–	–	–	–
Oc1ccccc1 [phenol]	–	no detectable binding	no detectable binding	significantly decrease the binding affinity	7860 ± 10 nM	2870 ± 10 nM	460 ± 60 nM	4350 ± 70 nM	2700 ± 500 nM	450 ± 60 nM
